{
  "source": "patent US20260373497A1",
  "about": "“MOLECULAR MACHINES STIMULATE INTERCELLULAR CALCIUM WAVES AND CAUSE MUSCLE CONTRACTION” (William Marsh Rice University, priority 2022, published 2026)",
  "key": {"C2C12 myoblasts": {"test_system": "C2C12 myoblasts", "experiment": "Pathway inhibitors on MM-induced calcium release in C2C12 myoblasts", "type": "cell-based, mouse", "conditions": "role: inhibitor; for Effect on MM-induced calcium signaling: SQ22536 100 μM, cAMPS-Rp 200 μM", "description": "FIGS. 38A-38F—Calcium release in C2C12 myoblasts occurs by means of the IP3 pathway. Average normalized fluorescence intensity traces of C2C12 myoblasts before and after treatment with a) 10 μM U-73122 (PLC inhibitor), b) 100 μM gallein (GPCRβγ inhibitor), c) 1 μM FR900359 (GPCRα inhibitor), d) 200 μM cAMPS-Rp (cAMP antagonist, inhibits PKA activation), e) 100 μM SQ22536 (adenylyl cyclase inhibitor), and f) 1 μM nintedanib (RTK inhibitor).\nIt was determined that MMs activate the IP3 pathway by inhibiting key proteins along the pathway. If inhibition of a specific protein decreases the magnitude of the observed calcium responses, then it can be assumed that the targeted protein played an important role in propagating the calcium signaling pathway that was initiated by MMs. […] When both gallein and FR900359 are used simultaneously, a similar decrease of ~50% also occurs (FIG. 33). […] This may occur either through direct MM activation or indirectly through MM activation of a different signaling pathway. It is known that RTKs can also activate PLC (Bill and Vines, 2020).\nThe effect of cAMP pathway inhibition on the elicited calcium signaling responses was measured by using 100 μM SQ22536 to inhibit adenylyl cyclase (FIG. 38D) and 200 μM cAMPS-Rp (FIG. 38E), a cAMP antagonist that inhibits protein kinase A (PKA) activation. […] At this moment it cannot be concluded whether this effect is because MMs also activate the GPCRs associated with the cAMP pathway, or if inhibition of adenylyl cyclase and PKA naturally affects normal calcium signaling pathways, regardless of MM stimulation."}, "HEK293 cells [1]": {"test_system": "HEK293 cells", "experiment": "Pharmacological blocking of MM 1-induced calcium responses", "type": "cell-based", "conditions": "role: inhibitor, MM 1 + light", "description": "FIGS. 14A-14J—Mechanistic study of MM-induced ICW. (a) Schematic of possible mechanisms by which calcium can enter the cytoplasm. Prepared with Biorender.com. (b) Confocal microscope images of HEK293 cells treated with MM 1, MitoTracker Green, ER Tracker Red, and CellMask Deep Red. Scale bars are both 20 μm and apply to the images in the same row. (c-h) Calcium waves elicited by MM 1-treated cells (c) in calcium-free PBS, (d) in RR (1 μM), (e) in Gd^3+ (50 μM), (f) after treatment of cells with Th (1 μM), (g) in Ry (100 μM), (h) in XeC (25 μM), (i) in U-73 (10 μM), (j) after pre-treatment of cells with Cyto D (2 μM). The solid line represents the calcium profiles averaged from six independent cells. The shaded region represents the standard error of the mean (n=6). Stimuli were presented after 30 s of imaging in each case, and the time of stimulus presentation is indicated by the vertical cyan line. […] All stimuli were delivered with a pulse width of 250 ms to a circular area of diameter 5 μm at a power ranging from 3.2×10^2 W cm^−2 to 5.1×10^2 W cm^−2. For all plots, the cyan line indicates the time of stimulus presentation. Controls and experimental groups were imaged and stimulated on the same day using the same conditions and with the same batch of cells. Error bars in the bar graphs represent the standard deviation of the mean of n=3 experiments (at least 6 stimulated cells per experiment). Statistical analyses were performed using a one-tailed Welch's t-test. * P-value<0.05, ** P-value<0.01, *** P-value<0.001, **** P-value<0.0001.\nImaging was conducted in imaging extracellular buffer (iECB; 119 mM NaCl, 5 mM KCl, 10 mM HEPES, 2 mM CaCl2, 1 mM MgCl2 (pH 7.2); 320 mOsm). Imaging in calcium-free medium was conducted in phosphate-buffered saline. Cells were prepared for imaging by seeding a 35 mm Ibidi imaging dish with ~50,000 cells in 1 mL of DMEM, and grown at 37 °C, 5% CO2 for 2 days. Prior to imaging, cells were incubated with dyes and/or molecules resuspended in complete growth medium at the appropriate concentration (MM 1 (8 μM), MM 2 (8 μM), MM 3 (24 μM), MM 4 (8 μM), Fluo-4 (2 μM)). MM and Fluo-4 were loaded into cells for 45 min. Cells treated with thapsigargin were exposed for 30 min after MM and Fluo-4 loading. Cells treated with organelle-targeting dyes were exposed for 5 min after MM loading. Ruthenium red and Gd^3+ were included in the imaging medium during stimulation and were associated with cells for 10 min prior to imaging. At the end of incubation, this medium was replaced with the iECB. Unless otherwise specified, all experiments were replicated in triplicate.\nPharmacological Experiments: In pharmacological blocking experiments, cells were loaded with MM and Fluo-4 as previously described. Typical imaging experiments in previously described extracellular buffer were then conducted as a positive control. Then, the imaging buffer was replaced, and the cells were treated as required for each experiment. After a brief recovery period, the cells were imaged again, and six different cells were stimulated. Experiments in calcium-free imaging buffer used phosphate buffered saline. Thapsigargin (Th: 1 μM) and Cytochalasin D (Cyto D; 2 μM) were incubated with cells in complete growth medium for 1 h (Th) or 2 h (Cyto D) before imaging. Ruthenium red (RR; 1 μM), gadolinium (Gd; 50 μM), ryanodine (Ry; 100 μM), xestospongin C (XeC; […]), and U-73122 (U-73; 10 μM) were administered directly into the imaging medium. Cells were incubated in the medium for ~5 min prior to imaging. Traces presented are representative results across at least six cells from single experiments, while bar graphs represent the average results across at least three distinct experiments."}, "C2C12 myotubes": {"test_system": "C2C12 myotubes", "experiment": "C2C12 myotube contraction (image subtraction)", "type": "cell-based, mouse", "description": "FIG. 35—Flow chart for the image subtraction process. First, the background is subtracted from the traces to account for drift during the course of the experiment (top row). After this, the traces are zeroed at the point of stimulation, and the area is calculated from the point of stimulation until the end of the experiment to yield the contraction magnitude. (bottom row).\nFIGS. 40A-40D—MMs induce contraction in C2C12 myotubes, a) Confocal microscopy images of Fluo-4 and b) image subtraction of brightfield images to highlight calcium release and contractile motion in three stimulated myotubes (indicated by the red arrows) immediately before stimulation (t=0) for 1.5 s with 400-nm light, as well as 10 s and 120 s after stimulation. Scale bar=30 μm. c) Magnitude of contraction of MM 1 compared to DMSO, MM 2, MM 3, and cells treated with 10 μM U-73122. d) Mechanism of skeletal muscle cell contraction.\nThis method yielded images where the pixel intensity corresponds to movement over the course of the experiment (FIG. 40C), allowing us to easily visualize and quantify contraction."}, "[2]": {"experiment": "UV-Vis absorbance of motors in DMSO", "type": "physicochemical", "source_text": "The UV-Vis spectrum of each motor was also acquired in DMSO (FIG. 37D) to ensure that the difference in absorbance at 400 nm was not the cause of larger or smaller responses."}, "[3]": {"conditions": "cited from earlier work"}, "HEK293 cells [4]": {"test_system": "HEK293 cells", "experiment": "ROS scavengers on MM 1-induced calcium waves", "type": "cell-based", "conditions": "melatonin 100 μM, thiourea 50 mM, L-ascorbic acid 2 mM; 1 h; MM 1, 4.5×10^2 W cm^−2", "description": "Normalized fluorescence intensity traces of HEK293 cells treated with MM 1 and Fluo-4 and administered (a) melatonin (Mel; 100 μM), (b) thiourea (ThioU; 50 mM), and (c) L-ascorbic acid (Vit C; 2 mM). The shaded region indicates the standard error of n=6 stimulation attempts. Dark traces indicate positive controls collected prior to treatment. Stimulation was administered at 4.5×10^2 W cm^−2. Cells were incubated with chosen ROS scavengers for 1 h prior to stimulation."}},
  "data": [
    {"compound": "FR900359", "values": [
      {"measurement": "Reduction in observed calcium response", "setting": "C2C12 myoblasts; FR900359 1 μM", "result": "~ 50%"}
    ]},
    {"compound": "C/C=C(/C)C(=O)O[C@H]1C(C)=C2[C@H]([C@@H]1OC(=O)CCCCCCC)[C@@](C)(OC(C)=O)C[C@H](OC(=O)CCC)[C@@]1(O)[C@H]2OC(=O)[C@@]1(C)O", "note": "[thapsigargin]", "values": [
      {"measurement": "Effect on MM-induced calcium responses", "setting": "HEK293 cells [1]; thapsigargin 1 μM, P=0.00257", "result": "did not show any measurable calcium flux upon light stimulation"}
    ]},
    {"compound": "[Gd+3]", "note": "[Gd^3+, gadolinium]", "values": [
      {"measurement": "Effect on MM-induced calcium responses", "setting": "HEK293 cells [1]; Gd^3+ 50 μM", "result": "did not affect the observed responses"}
    ]},
    {"compound": "C1CCC[C@H]2CCCN3CC[C@@H](CCCCCC[C@@H]4CCCN5CC[C@@H](CC1)O[C@@H]45)O[C@@H]23", "note": "[xestospongin C]", "values": [
      {"measurement": "Effect on MM-induced calcium responses", "setting": "HEK293 cells [1]; XeC 25 μM (20 μM in Table 2), P=0.0167", "result": "significantly diminished the strength of cellular responses to MM"}
    ]},
    {"compound": "CN(C)CCNc1ccc2c(c1)Sc1ccccc1C2=C1CCc2ccc3ccccc3c21", "note": "[MM 2 (fast, bidirectional)]", "values": [
      {"measurement": "Myotube contraction", "setting": "C2C12 myotubes; 400-nm light 1.5 s, image subtraction", "result": "Strong cellular contraction did not occur"},
      {"measurement": "Absorbance at 400 nm", "setting": "[2]", "result": "nearly identical absorbances at 400 nm"},
      {"measurement": "Rotation rate", "setting": "[3]", "result": "~ 3 MHz"}
    ]},
    {"compound": "COC(=O)c1ccc2c(c1)NC(=O)/C2=C(\\Nc1ccc(N(C)C(=O)CN2CCN(C)CC2)cc1)c1ccccc1", "note": "[nintedanib]", "values": [
      {"measurement": "Effect on MM-induced calcium responses", "setting": "C2C12 myoblasts; nintedanib 1 μM (RTK inhibition)", "result": "no decrease in magnitude of the elicited calcium responses"}
    ]},
    {"compound": "COc1ccc2[nH]cc(CCNC(C)=O)c2c1", "note": "[melatonin]", "values": [
      {"measurement": "Effect of ROS scavenger on MM induced ICW", "setting": "HEK293 cells [4]", "result": "does not affect MM induced ICW"}
    ]},
    {"compound": "Nc1ncnc2c1ncn2C1CCCO1", "note": "(stereo not shown) [SQ22536]", "values": [
      {"measurement": "Effect on MM-induced calcium signaling", "setting": "C2C12 myoblasts", "result": "small reduction in calcium signaling"}
    ]},
    {"compound": "O=C1OC2(c3ccccc31)c1ccc(O)c(O)c1Oc1c2ccc(O)c1O", "note": "[gallein]", "values": [
      {"measurement": "inhibition at 100 µM", "setting": "C2C12 myoblasts; Mus musculus, C2C12, gallein 100 μM, read-out: Reduction in observed calcium response", "result": "~50", "unit": "%"}
    ]},
    {"compound": "N.N.N.N.N.N.N.N.N.N.N.N.N.N.[Cl-].[Cl-].[Cl-].[Cl-].[Cl-].[Cl-].[O-2].[O-2].[Ru+3].[Ru+3].[Ru+4]", "note": "[ruthenium red]", "values": [
      {"measurement": "Effect on MM-induced calcium responses", "setting": "HEK293 cells [1]; ruthenium red 1 μM (10 μM in Table 2)", "result": "did not decrease the magnitude of MM-induced calcium responses"}
    ]},
    {"compound": "Nc1ncnc2c1ncn2[C@@H]1O[C@@H]2CO[P@@](O)(=S)O[C@H]2[C@H]1O", "note": "[cAMPS-Rp]", "values": [
      {"measurement": "Effect on MM-induced calcium signaling", "setting": "C2C12 myoblasts", "result": "small reduction in calcium signaling"}
    ]},
    {"compound": "ryanodine", "values": [
      {"measurement": "Effect on MM-induced calcium response amplitude", "setting": "HEK293 cells [1]; ryanodine 100 μM", "result": "no effect on response amplitude"}
    ]},
    {"compound": "COc1ccc2c(c1)CC[C@@H]1[C@@H]2CC[C@]2(C)[C@@H](NCCCCCCN3C(=O)C=CC3=O)CC[C@@H]12", "note": "[U-73122, reference compound]", "values": [
      {"measurement": "Effect on MM-induced calcium responses", "setting": "C2C12 myoblasts; U-73122 10 μM", "result": "completely abolished"},
      {"measurement": "Myotube contraction magnitude with PLC inhibitor", "setting": "C2C12 myotubes; role: inhibitor, U73 (10 μM) with MM 1 + light", "result": "contraction magnitude equal to that of the DMSO control"}
    ]},
    {"compound": "NC(N)=S", "note": "[thiourea]", "values": [
      {"measurement": "Effect of ROS scavenger on MM induced ICW", "setting": "HEK293 cells [4]", "result": "does not affect MM induced ICW"}
    ]},
    {"compound": "C=C1[C@@H](C)[C@H]2[C@H](Cc3ccccc3)NC(=O)[C@]23[C@H](OC(C)=O)/C=C/[C@@](C)(O)C(=O)[C@@H](C)C/C=C/[C@H]3[C@@H]1O", "note": "[cytochalasin D]", "values": [
      {"measurement": "Effect on MM-induced calcium responses", "setting": "HEK293 cells [1]; cytochalasin D 2 μM, P=0.01762", "result": "inhibited"}
    ]},
    {"compound": "O=C1O[C@H]([C@@H](O)CO)C(O)=C1O", "note": "[L-ascorbic acid]", "values": [
      {"measurement": "Effect of ROS scavenger on MM induced ICW", "setting": "HEK293 cells [4]", "result": "does not affect MM induced ICW"}
    ]}
  ]
}
